This is an account of results in article PMC8151276, “An Integrated Approach toward NanoBRET Tracers for Analysis of GPCR Ligand Engagement” (Molecules, 2021).

Type in all cases: binding
One assay concerns the target T1, BDKRB2 (Homo sapiens, UniProt P30411).
T1 construct: purchased Promega (in-house HiBiT-GPCR construct library, NanoBRET)
T1 sequence (P30411 1-391): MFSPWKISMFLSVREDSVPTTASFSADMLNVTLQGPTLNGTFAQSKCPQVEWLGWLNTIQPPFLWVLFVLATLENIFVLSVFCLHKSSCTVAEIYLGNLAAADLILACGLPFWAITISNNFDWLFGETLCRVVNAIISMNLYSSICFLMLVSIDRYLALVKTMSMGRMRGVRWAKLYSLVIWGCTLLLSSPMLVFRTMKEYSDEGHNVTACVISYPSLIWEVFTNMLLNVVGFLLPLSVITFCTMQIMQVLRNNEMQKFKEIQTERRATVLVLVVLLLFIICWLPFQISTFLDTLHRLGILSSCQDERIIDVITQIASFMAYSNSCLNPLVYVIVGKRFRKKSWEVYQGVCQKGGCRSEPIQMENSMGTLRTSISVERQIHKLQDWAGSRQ
Put plainly: NanoBRET screen HiBiT-BDKRB2 in HEK293. The essentials:
(§1)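 HEK293 cells transiently expressing N-terminal HiBiT-receptor fusions (diluted in carrier DNA, 18–20 h) treated 1.5 h at RT with fluorescent tracer at 1 μM or 0.1 μM, alone or with 20 μM unlabelled parental compound. Extracellular LgBiT plus furimazine added, 15 min; BRET 600/450 nm; value is fold BRETtracer/BRETcompetitor, ≥1.5 scored positive.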
(In general: BRET reads energy transfer from a luciferase to a nearby fluorophore.)

The next assay addresses T2, FZD5 (Homo sapiens, UniProt Q13467).
T2 construct: purchased Promega (in-house HiBiT-GPCR construct library, NanoBRET)
The assay can be described thus: NanoBRET screen HiBiT-FZD5 in HEK293. The essentials:
as §1

The target of the next assay is T3, CXCR4 (Homo sapiens, UniProt P61073).
T3 construct: purchased Promega (in-house HiBiT-GPCR construct library, NanoBRET)
T3 sequence (P61073 whole entry): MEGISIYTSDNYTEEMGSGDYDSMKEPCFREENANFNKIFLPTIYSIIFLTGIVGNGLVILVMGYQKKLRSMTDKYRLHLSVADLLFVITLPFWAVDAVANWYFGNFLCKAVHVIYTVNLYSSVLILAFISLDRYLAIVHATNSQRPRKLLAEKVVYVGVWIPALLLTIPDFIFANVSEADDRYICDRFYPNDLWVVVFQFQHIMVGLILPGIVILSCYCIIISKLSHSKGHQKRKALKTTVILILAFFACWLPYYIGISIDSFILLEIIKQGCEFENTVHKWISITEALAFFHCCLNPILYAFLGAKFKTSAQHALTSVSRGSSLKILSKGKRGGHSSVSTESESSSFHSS
The assay can be described thus: NanoBRET screen HiBiT-CXCR4 in HEK293. In outline:
as §1

The target in a further assay is T4, CCR7 (Homo sapiens, UniProt P32248).
T4 construct: purchased Promega (in-house HiBiT-GPCR construct library, NanoBRET)
T4 sequence (P32248 25-378): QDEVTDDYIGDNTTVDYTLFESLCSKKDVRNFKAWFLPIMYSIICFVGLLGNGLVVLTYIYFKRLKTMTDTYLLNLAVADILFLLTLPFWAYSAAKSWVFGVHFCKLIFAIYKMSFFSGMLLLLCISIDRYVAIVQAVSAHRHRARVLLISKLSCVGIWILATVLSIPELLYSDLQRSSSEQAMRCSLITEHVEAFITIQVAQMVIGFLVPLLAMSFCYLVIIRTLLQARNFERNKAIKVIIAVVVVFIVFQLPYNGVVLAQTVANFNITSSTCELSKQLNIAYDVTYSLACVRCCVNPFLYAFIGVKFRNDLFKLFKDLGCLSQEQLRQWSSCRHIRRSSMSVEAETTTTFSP
Put plainly: NanoBRET screen HiBiT-CCR7 in HEK293. The essentials: as §1

Another assay concerns the target T5, CCR4 (Homo sapiens, UniProt P51679).
T5 construct: purchased Promega (in-house HiBiT-GPCR construct library, NanoBRET)
T5 sequence (P51679 1-360): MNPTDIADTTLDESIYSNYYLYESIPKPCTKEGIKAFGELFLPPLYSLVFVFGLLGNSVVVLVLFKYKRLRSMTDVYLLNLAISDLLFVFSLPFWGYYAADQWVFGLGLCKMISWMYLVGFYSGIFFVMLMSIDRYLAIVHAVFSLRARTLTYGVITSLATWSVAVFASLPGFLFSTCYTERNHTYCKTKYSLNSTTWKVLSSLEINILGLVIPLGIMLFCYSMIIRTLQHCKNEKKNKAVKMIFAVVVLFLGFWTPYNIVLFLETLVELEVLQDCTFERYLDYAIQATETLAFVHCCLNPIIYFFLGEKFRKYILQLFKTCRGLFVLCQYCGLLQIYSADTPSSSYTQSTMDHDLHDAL
Put plainly: NanoBRET screen HiBiT-CCR4 in HEK293. In outline: as §1

A further assay deals with T6, P2RY1 (Homo sapiens, UniProt P47900).
T6 construct: purchased Promega (in-house HiBiT-GPCR construct library, NanoBRET)
T6 sequence (P47900 whole entry): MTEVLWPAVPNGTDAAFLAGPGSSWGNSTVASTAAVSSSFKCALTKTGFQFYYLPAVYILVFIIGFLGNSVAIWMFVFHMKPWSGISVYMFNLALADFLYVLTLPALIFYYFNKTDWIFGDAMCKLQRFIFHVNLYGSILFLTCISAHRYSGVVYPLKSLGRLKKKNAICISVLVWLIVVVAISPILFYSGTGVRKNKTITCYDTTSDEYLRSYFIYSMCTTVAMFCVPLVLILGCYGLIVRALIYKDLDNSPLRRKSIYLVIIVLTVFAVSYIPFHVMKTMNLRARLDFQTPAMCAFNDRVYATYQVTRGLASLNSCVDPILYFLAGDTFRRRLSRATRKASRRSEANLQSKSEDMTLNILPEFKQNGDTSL
The assay can be described thus: NanoBRET screen HiBiT-P2RY1 in HEK293. In outline:
as §1

[1] abbreviates: tracer at 0.1μM, listed as amitriptyline-b-2-NB590.
Where [2] appears, read: tracer at 1μM, listed as amitriptyline-b-2-NB590.

T2 sequence (Q13467 27-585): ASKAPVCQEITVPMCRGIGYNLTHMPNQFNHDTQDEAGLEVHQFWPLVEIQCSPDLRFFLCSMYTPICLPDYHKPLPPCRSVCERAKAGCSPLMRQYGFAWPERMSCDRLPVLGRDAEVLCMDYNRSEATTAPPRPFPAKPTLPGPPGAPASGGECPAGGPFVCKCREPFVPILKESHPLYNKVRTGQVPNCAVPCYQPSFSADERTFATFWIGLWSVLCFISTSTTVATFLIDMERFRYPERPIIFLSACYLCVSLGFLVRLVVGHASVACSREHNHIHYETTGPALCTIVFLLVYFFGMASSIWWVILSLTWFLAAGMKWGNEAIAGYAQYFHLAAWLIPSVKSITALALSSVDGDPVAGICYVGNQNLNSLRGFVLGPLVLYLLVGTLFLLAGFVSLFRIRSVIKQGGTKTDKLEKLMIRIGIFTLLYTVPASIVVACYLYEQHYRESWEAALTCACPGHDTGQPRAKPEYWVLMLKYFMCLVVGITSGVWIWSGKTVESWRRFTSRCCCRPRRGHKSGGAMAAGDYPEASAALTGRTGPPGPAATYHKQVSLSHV

With `N#CN=C(NCCCOc1cccc(CN2CCCCC2)c1)NCCNC(=O)CCOCCOCCOCCOCCNC(=O)CCc1ccc2n1[B-](F)(F)[N+]1=C(c3ccc[nH]3)C=CC1=C2` [Aminopotentidine-2-NB590], the “NanoBRET Fold Response” value is 1.00 on BDKRB2 (BDKRB2, tracer 0.1μM); 1.01 at BDKRB2 (BDKRB2, tracer 1μM); 1.06 on FZD5 (FZD5, tracer 0.1μM); 1.05 at FZD5 (FZD5, tracer 1μM); 1.08 at CXCR4 (CXCR4, tracer 0.1μM); 0.99 at CXCR4 (CXCR4, tracer 1μM). Besides, the “NanoBRET Fold Response” value was 0.96 on CCR7 (CCR7, tracer 0.1μM); 1.01 on CCR7 (CCR7, tracer 1μM); 1.09 on CCR4 (CCR4, tracer 0.1μM); 0.96 on CCR4 (CCR4, tracer 1μM); 1.02 at P2RY1 (P2RY1, tracer 0.1μM); 1.02 on P2RY1 (P2RY1, tracer 1μM).

As to `Cc1nc2n(c(=O)c1CCN1CCC(c3noc4cc(F)ccc34)CC1)CCCC2OC(=O)NCCOCCOCCOCCOCCNC(=O)CCc1ccc2n1[B-](F)(F)[N+]1=C(c3ccc[nH]3)C=CC1=C2` (centres unmarked) [Risperidone-2-NB590], the “NanoBRET Fold Response” value on BDKRB2 (BDKRB2, tracer 0.1μM) is 0.92; at BDKRB2 (BDKRB2, tracer 1μM), 0.96; at FZD5 (FZD5, tracer 0.1μM) it was 0.95; at FZD5 (FZD5, tracer 1μM), 0.99; on CXCR4 (CXCR4, tracer 0.1μM) it was 1.05; on CXCR4 (CXCR4, tracer 1μM) it was 1.12. For the same molecule, the “NanoBRET Fold Response” value was found to be 1.00 on CCR7 (CCR7, tracer 0.1μM); 1.04 at CCR7 (CCR7, tracer 1μM); 1.01 at CCR4 (CCR4, tracer 0.1μM); 1.22 on CCR4 (CCR4, tracer 1μM); 0.98 at P2RY1 (P2RY1, tracer 0.1μM); 0.97 on P2RY1 (P2RY1, tracer 1μM).

Regarding `CN(C)CCC=C1c2ccccc2CCc2ccc(C(=O)NCCNC(=O)CCOCCOCCOCCOCCNC(=O)CCc3ccc4n3[B-](F)(F)[N+]3=C(c5ccc[nH]5)C=CC3=C4)cc21` [Amitriptyline-b-2-NB590], the “NanoBRET Fold Response” value on BDKRB2 (setting [1]) was found to be 1.05; at BDKRB2 (setting [2]) it was 1.12; at FZD5 (tracer at 0.1μM), 0.97; at FZD5 (setting [2]), 0.99; on CXCR4 (setting [1]), 1.12; on CXCR4 (tracer at 1μM), 0.70. Besides, the “NanoBRET Fold Response” value is on record as 1.00 at CCR7 (setting [1]); 1.00 on CCR7 (setting [2]); 1.02 on CCR4 (setting [1]); 0.95 on CCR4 (tracer at 1μM); 1.13 at P2RY1 (setting [1]).
